Reference: ChEMBL document CHEMBL1156893, “Structure-activity relationships amongst 4-position quinoline methanol antimalarials that inhibit the growth of drug sensitive and resistant strains of Plasmodium falciparum” (Bioorg Med Chem Lett, 2010)
≈ marks a conversion by molar mass, not a printed value.

Assays:
Plasmodium falciparum [1] = test: Antimalarial activity against chloroquine and mefloquine-sensitive Plasmodium falciparum D6; type: functional
Plasmodium falciparum [2] = test: Antimalarial activity against chloroquine, pyrimethamine and mefloquine-resistant Plasmodium falciparum TM1C235; type: functional, organism-based
Plasmodium falciparum [3] = test: Antimalarial activity against Plasmodium falciparum TM90C2A; type: functional, organism-based
Plasmodium falciparum [4] = test: Antimalarial activity against chloroquine-resistant and mefloquine-sensitive Plasmodium falciparum W2; type: functional, organism-based
[5] = Cytotoxicity against mouse RAW264.7 cells; type: cell-based; conditions: read-out: LC50 (the source's name)
[6] = Apparent permeability from apical to basolateral side of MDCK cell monolayer expressing MDR1; type: ADME, cell-based, Canis lupus familiaris; conditions: dog
[7] = Half life in mouse liver microsomes; type: ADME, Microsome
Plasmodium berghei = test: Antimalarial activity against Plasmodium berghei infected in ICR mice (Mus musculus) assessed as delay in mortality at 160 mg/kg, perorally for 3 days; type: functional, organism-based; parameters: dose 160 mg/kg

Row | SMILES | IC90 (Plasmodium falciparum [1]) | IC90 (Plasmodium falciparum [2]) | IC90 (Plasmodium falciparum [3]) | IC90 (Plasmodium falciparum [4]) | CC50 [5] | IC50 (Plasmodium falciparum [2]) | IC50 (Plasmodium falciparum [3]) | IC50 (Plasmodium falciparum [4]) | Papp A→B [6] | half-life [7] | survival time (Plasmodium berghei)
1 | NCC(O)c1cc(C(F)(F)F)nc2c(C(F)(F)F)cccc12 (stereo not given) | 0.47 µg/mL (≈ 1.45 µM) | > 0.5 µg/mL | > 0.5 µg/mL | 0.4 µg/mL (≈ 1.23 µM) | 8.07 µg/mL (≈ 24.9 µM) | – | – | – | – | – | –
2 | OC(CNCCF)c1cc(C(F)(F)F)nc2c(C(F)(F)F)cccc12 (stereo not given) | > 0.5 µg/mL | – | – | – | – | > 0.5 µg/mL | > 0.5 µg/mL | > 0.5 µg/mL | – | – | –
3 | CCCCCCC(O)c1cc(C(F)(F)F)nc2c(C(F)(F)F)cccc12 (stereo not given) | > 0.5 µg/mL | – | – | – | – | > 0.5 µg/mL | > 0.5 µg/mL | > 0.5 µg/mL | – | – | –
4 | CCCCNCC(O)c1cc(C(F)(F)F)nc2c(C(F)(F)F)cccc12 (stereo not given) | 0.002 µg/mL (≈ 0.00526 µM) | 0.009 µg/mL (≈ 0.0237 µM) | 0.012 µg/mL (≈ 0.0316 µM) | 0.001 µg/mL (≈ 0.00263 µM) | 2.96 µg/mL (≈ 7.8 µM) | – | – | – | 25 ×10⁻⁶ cm/s | – | –
5 | CSCCCNCC(O)c1cc(C(F)(F)F)nc2c(C(F)(F)F)cccc12 (stereo not given) | 0.01 µg/mL (≈ 0.0242 µM) | – | – | 0.036 µg/mL (≈ 0.0873 µM) | 8.62 µg/mL (≈ 20.9 µM) | – | – | – | 38 ×10⁻⁶ cm/s | – | –
6 | CCCCOCC(O)c1cc(C(F)(F)F)nc2c(C(F)(F)F)cccc12 (stereo not given) | > 0.5 µg/mL | – | – | – | – | > 0.5 µg/mL | > 0.5 µg/mL | > 0.5 µg/mL | – | – | –
7 | CC(C)CNCC(O)c1cc(C(F)(F)F)nc2c(C(F)(F)F)cccc12 (stereo not given) | 0.002 µg/mL (≈ 0.00526 µM) | 0.015 µg/mL (≈ 0.0394 µM) | 0.021 µg/mL (≈ 0.0552 µM) | 0.013 µg/mL (≈ 0.0342 µM) | 27.1 µg/mL (≈ 71.3 µM) | – | – | – | – | 27 min | –
8 | CCCN(CCC)CC(O)c1cc(C(F)(F)F)nc2c(C(F)(F)F)cccc12 (stereo not given) | 0.005 µg/mL (≈ 0.0122 µM) | 0.02 µg/mL (≈ 0.049 µM) | 0.03 µg/mL (≈ 0.0735 µM) | 0.02 µg/mL (≈ 0.049 µM) | 33.2 µg/mL (≈ 81.2 µM) | – | – | – | – | – | –
9 | CCCCN(CCCC)CC(O)c1cc(C(F)(F)F)nc2c(C(F)(F)F)cccc12 (stereo not given) | 0.002 µg/mL (≈ 0.00458 µM) | 0.027 µg/mL (≈ 0.0619 µM) | 0.019 µg/mL (≈ 0.0435 µM) | 0.011 µg/mL (≈ 0.0252 µM) | 20.1 µg/mL (≈ 46 µM) | – | – | – | – | – | –
10 | OC(CNCCc1ccccc1)c1cc(C(F)(F)F)nc2c(C(F)(F)F)cccc12 (stereo not given) | 0.019 µg/mL (≈ 0.0444 µM) | 0.043 µg/mL (≈ 0.1 µM) | 0.023 µg/mL (≈ 0.0537 µM) | 0.023 µg/mL (≈ 0.0537 µM) | 9.64 µg/mL (≈ 22.5 µM) | – | – | – | – | – | –
11 | OC(Cn1cnc2ccccc21)c1cc(C(F)(F)F)nc2c(C(F)(F)F)cccc12 (stereo not given) | 0.12 µg/mL (≈ 0.282 µM) | 0.48 µg/mL (≈ 1.13 µM) | 0.45 µg/mL (≈ 1.06 µM) | 0.41 µg/mL (≈ 0.964 µM) | – | – | – | – | – | 4 min | –
12 | OC(c1cc(C(F)(F)F)nc2c(C(F)(F)F)cccc12)C1CCCCN1 (racemic) [MEFLOQUINE] | – | – | – | – | – | – | – | – | 9.4 ×10⁻⁶ cm/s | – | –
13 | CCN(CC)CC(O)c1cc(C(F)(F)F)nc2c(C(F)(F)F)cccc12 (stereo not given) | 0.009 µg/mL (≈ 0.0237 µM) | 0.037 µg/mL (≈ 0.0973 µM) | 0.067 µg/mL (≈ 0.176 µM) | 0.026 µg/mL (≈ 0.0684 µM) | 2.09 µg/mL (≈ 5.5 µM) | – | – | – | – | – | –
14 | CNCC(O)c1cc(C(F)(F)F)nc2c(C(F)(F)F)cccc12 (stereo not given) | 0.017 µg/mL (≈ 0.0503 µM) | – | – | 0.045 µg/mL (≈ 0.133 µM) | 13.7 µg/mL (≈ 40.4 µM) | – | – | – | 24 ×10⁻⁶ cm/s | 60 min | –
15 | CN(C)CC(O)c1cc(C(F)(F)F)nc2c(C(F)(F)F)cccc12 (stereo not given) | 0.02 µg/mL (≈ 0.0568 µM) | 0.079 µg/mL (≈ 0.224 µM) | 0.173 µg/mL (≈ 0.491 µM) | 0.069 µg/mL (≈ 0.196 µM) | 24.6 µg/mL (≈ 69.9 µM) | – | – | – | – | – | –
16 | COCCNCC(O)c1cc(C(F)(F)F)nc2c(C(F)(F)F)cccc12 (stereo not given) | 0.015 µg/mL (≈ 0.0392 µM) | 0.093 µg/mL (≈ 0.243 µM) | 0.1 µg/mL (≈ 0.262 µM) | 0.059 µg/mL (≈ 0.154 µM) | 38.2 µg/mL (≈ 100 µM) | – | – | – | 32 ×10⁻⁶ cm/s | – | –
17 | CCCCCCNCC(O)c1cc(C(F)(F)F)nc2c(C(F)(F)F)cccc12 (stereo not given) | 0.124 µg/mL (≈ 0.304 µM) | 0.409 µg/mL (≈ 1 µM) | 0.481 µg/mL (≈ 1.18 µM) | 0.372 µg/mL (≈ 0.911 µM) | – | – | – | – | – | – | –
18 | CCCCSCC(O)c1cc(C(F)(F)F)nc2c(C(F)(F)F)cccc12 (stereo not given) | > 0.5 µg/mL | – | – | – | – | > 0.5 µg/mL | > 0.5 µg/mL | > 0.5 µg/mL | – | – | –
19 | OC(CNCCNCc1ccccc1)c1cc(C(F)(F)F)nc2c(C(F)(F)F)cccc12 (stereo not given) | 0.006 µg/mL (≈ 0.0131 µM) | – | – | 0.029 µg/mL (≈ 0.0634 µM) | 8.28 µg/mL (≈ 18.1 µM) | – | – | – | 8.4 ×10⁻⁶ cm/s | – | 10 days
20 | CCCc1nccn1CC(O)c1cc(C(F)(F)F)nc2c(C(F)(F)F)cccc12 (stereo not given) | 0.36 µg/mL (≈ 0.863 µM) | 0.25 µg/mL (≈ 0.599 µM) | 0.24 µg/mL (≈ 0.575 µM) | 0.32 µg/mL (≈ 0.767 µM) | 50.1 µg/mL (≈ 120 µM) | – | – | – | – | 8 min | –
21 | CC(C)c1nccn1CC(O)c1cc(C(F)(F)F)nc2c(C(F)(F)F)cccc12 (stereo not given) | > 0.5 µg/mL | – | – | – | 50.1 µg/mL (≈ 120 µM) | > 0.5 µg/mL | > 0.5 µg/mL | > 0.5 µg/mL | – | 10 min | –
22 | OCCNCC(O)c1cc(C(F)(F)F)nc2c(C(F)(F)F)cccc12 (stereo not given) | 0.26 µg/mL (≈ 0.706 µM) | 0.485 µg/mL (≈ 1.32 µM) | 0.388 µg/mL (≈ 1.05 µM) | 0.49 µg/mL (≈ 1.33 µM) | – | – | – | – | – | – | –
23 | OC(c1cc(C(F)(F)F)nc2c(C(F)(F)F)cccc12)C1CCCCN1 (stereo not given) [MEFLOQUINE] | – | – | – | – | – | – | – | – | – | > 60 min | –
24 | COCCCNCC(O)c1cc(C(F)(F)F)nc2c(C(F)(F)F)cccc12 (stereo not given) | 0.012 µg/mL (≈ 0.0303 µM) | 0.084 µg/mL (≈ 0.212 µM) | 0.086 µg/mL (≈ 0.217 µM) | 0.051 µg/mL (≈ 0.129 µM) | 25.2 µg/mL (≈ 63.5 µM) | – | – | – | – | – | –
25 | OC(CNCc1ccccc1)c1cc(C(F)(F)F)nc2c(C(F)(F)F)cccc12 (stereo not given) | 0.019 µg/mL (≈ 0.0459 µM) | 0.086 µg/mL (≈ 0.208 µM) | 0.151 µg/mL (≈ 0.364 µM) | 0.067 µg/mL (≈ 0.162 µM) | 20.4 µg/mL (≈ 49.3 µM) | – | – | – | – | – | –
26 | OC(CNCC(F)(F)F)c1cc(C(F)(F)F)nc2c(C(F)(F)F)cccc12 (stereo not given) | > 0.5 µg/mL | – | – | – | 32.1 µg/mL (≈ 78.9 µM) | > 0.5 µg/mL | > 0.5 µg/mL | > 0.5 µg/mL | – | – | –
27 | OC(CNc1ccccc1)c1cc(C(F)(F)F)nc2c(C(F)(F)F)cccc12 (stereo not given) | 0.484 µg/mL (≈ 1.21 µM) | 0.437 µg/mL (≈ 1.09 µM) | 0.5 µg/mL (≈ 1.25 µM) | 0.377 µg/mL (≈ 0.942 µM) | 22.3 µg/mL (≈ 55.7 µM) | – | – | – | – | – | –
28 | CC(C)NCC(O)c1cc(C(F)(F)F)nc2c(C(F)(F)F)cccc12 (stereo not given) | 0.005 µg/mL (≈ 0.0136 µM) | 0.023 µg/mL (≈ 0.0628 µM) | – | – | 5.2 µg/mL (≈ 14.2 µM) | – | – | – | – | 60 min | –
29 | Cc1nc2ccccc2n1CC(O)c1cc(C(F)(F)F)nc2c(C(F)(F)F)cccc12 (stereo not given) | 0.11 µg/mL (≈ 0.25 µM) | 0.31 µg/mL (≈ 0.706 µM) | 0.32 µg/mL (≈ 0.728 µM) | 0.22 µg/mL (≈ 0.501 µM) | – | – | – | – | – | 9 min | –
30 | CCc1nc(C)cn1CC(O)c1cc(C(F)(F)F)nc2c(C(F)(F)F)cccc12 (stereo not given) | 0.069 µg/mL (≈ 0.165 µM) | 0.056 µg/mL (≈ 0.134 µM) | 0.057 µg/mL (≈ 0.137 µM) | 0.043 µg/mL (≈ 0.103 µM) | 25.7 µg/mL (≈ 61.6 µM) | – | – | – | – | 22 min | –
